Measured values taken from patent US20070203225A1, “METHOD OF INCREASING ENDOGENOUS ADIPONECTIN PRODUCTION AND LEPTIN PRODUCTION” (priority 2001, published 2007).
“Also recorded” adds a separate entry of the source. Where two headings read alike, the source gives them in different places.

Tests used:
isolated rat adipocytes [1] = experiment: Leptin secretion/production by isolated cultured rat adipocytes (RIA); format: cell-based; conditions: for Leptin (ng) Produced over 96 h / [Leptin] (ng/ml) at 96 h: isolated rat adipocytes, 96 h culture; for increase of leptin production/secretion: PDH kinase inhibitors vs control: DTNB 100 μM, NEM 0.1 μM, DCA 2 mM; for increase of leptin secretion/production: Malate 2-5 mM, fumarate 5 mM, alone or in combination, low insulin and glucose, over control
Experimental: (§1) Cell isolation/preparation: Adipocytes are prepared from epididymal fat pads from male Sprague-Dawley rats weighing 300-600 g. Epididymal fat depots are resected from halothane anesthetized rats under aseptic conditions and adipocytes are isolated by collagenase digestion by the Rodbell method (Rodbell M. Metabolism of isolated fat cells. I. Effects of hormones on glucose metabolism and lipolysis. J Biol Chem. 1964; 239: 375-380), with minor modifications as previously described (Mueller W M, Gregoire F M, Stanhope K L, Mobbs C V, Mizuno T M, Warden C H, Stem J S, Havel P J. Evidence that glucose metabolism regulates leptin secretion from isolated adipocytes. Endocrinology 139: 551-558, 1998; Mueller W M, Stanhope K L, Gregoire F, Evans J L, Havel P J. Effects of metformin and vanadium on leptin secretion from cultured rat adipocytes. Obesity Res. 8: 530-539, 2000; Medina E A, Stanhope K L, Mizuno T M, Mobbs C V, Gregoire F, Hubbard N E, Erickson K L, Havel P J. Effects of tumor necrosis factor alpha on leptin secretion and gene expression: relationship to changes of glucose metabolism in isolated rat adipocytes. Int J Obes Relat Metab Disord. 23: 896-903, 1999.). The isolated adipocytes are then incubated for 30 minutes at 37 C before being plated and cultured on Matrigel-coated plates.
(§2) Adipocyte Culture: Adipocytes are maintained in culture anchored to a basement membrane matrix (Matrigel, Becton Dickinson, Franklin Lakes, N.J.) or collagen from Cohesion Technologies, (Palo Alto, Calif.). Although all in vitro systems have inherent advantages and disadvantages, advantages of this system compared with cultures containing free-floating adipocytes are that the matrix simulates their normal basement membrane attachment and that the cells are maintained in close proximity to each other, allowing direct cell to cell contact. Together the cell contact and basement membrane attachment help to maintain differentiation, since adipocytes have a strong tendency to dedifferentiate in long-term (>24 h) culture. In addition, the matrix and the small amount of serum in the media both contain growth factors, which are also likely to help in maintaining cell differentiation. Furthermore, the adipocytes in this system are not exposed to toxic levels of oxygen at the interface of the media and the incubator atmosphere, as opposed to free-floating adipocytes which aggregate at the surface of the media. An advantage of the system over those containing minced adipose tissue is that all of the cells in the culture are equally exposed to the nutrients and the oxygen dissolved in the media. Thus, although clearly different from the in vivo situation, this system provides a more physiological environment than most systems for maintaining adipocytes in long-term culture.
(§3) In culturing each suspension, Matrigel is first thawed on ice to a liquid and uniformly applied to the surface of culture dishes (300 μl Matrigel/35 mm well). After the incubation period, 150 μl of the adipocyte suspension (2:1 ratio of packed cells to media) are plated on the Matrigel or collagen matrix. Adipocytes from each suspension are thoroughly mixed with a transfer pipette before plating to insure that a similar number adipocytes with a similar size distribution are added to the control and experimental wells for each suspension. The warmth of the added cells and buffer causes the Matrigel to gel around the adipocytes, or the neutralization of the acidic pH of the collagen solution to 7.0 solidifies the collagen, and both of these techniques effectively anchor the adipocytes to the culture dish. After a 30 minute incubation at 37° C., 2 ml of warm culture medium is added. The cells are maintained in an incubator at 37° C. for 96 hours with 6% CO2. Aliquots of adipocytes from each animal are divided into wells, with the different concentrations of insulin or other agents to be tested. In each plate an appropriate control well contains adipocytes from the same animal. […]

leptin promoter = experiment: Leptin promoter luciferase construct transfected into 3T3-L1 cells; format: cell-based
isolated rat adipocytes [2] = conditions: cited from earlier work; for effect on leptin secretion (in words): citrate
[3] = tested on: isolated, cultured adipocytes; experiment: Fatty acid oxidation: incorporation of 14C-labeled oleate into CO2 by cultured adipocytes; format: cell-based, rat
Experimental: Experiments were also carried out to examine fatty acid oxidation by measuring the incorporation of ^14C-labeled oleate into CO2. […] Therefore, to further examine the potential role of fatty acid oxidation adipocytes were incubated with L-carnitine, a cofactor of the rate-limiting step for fatty acid transport into the mitochondria via carnitine-palmitoyl-tranferase (CPT).
Substrate Oxidation: Oxidation is measured using a modification of the method of Rodbell (Rodbell, 1964) and a modification of the cell culture system described by Bottcher and Furst (Bottcher, 1996). Briefly, adipocytes are isolated, counted and sized as previously described. Adipocytes are plated as described except they are placed in a sterile 20 ml scintillation vial instead of a well. Two ml of treatment media containing [U-^14C]-substrate (0.3 uCi/ml; glucose, fatty acids, malate, fumarate, pyruvate) is added to the vials. The vials are filled with 95% O2-5% CO2 gas and capped with rubber stoppers fitted with a hanging center well. Each well contains a 2×8 cm strip of Whatman No. 1 paper. Vials are maintained at 37° C. for 48 hr. […] After 24 hours, the hanging well and paper are transferred to another vial containing scintillation fluid and counted. The data are expressed as % DPM recovered as CO2 of the total DPM remaining in the media at 48 hours and as micromoles of substrate oxidized over time.

isolated rat adipocytes [4] = experiment: Lactate production and proportion of glucose anaerobically metabolized to lactate in isolated cultured rat adipocytes; format: cell-based; conditions: for Glucose to Lactate (%) / Lactate Produced (μg) over 96 h: isolated rat adipocytes, 96 h culture
Experimental: as §1, §2, §3

isolated rat adipocytes [5] = experiment: Glucose oxidation: incorporation of 14C-glucose into CO2 by isolated rat adipocytes; format: cell-based
Experimental: Substrate Oxidation: Oxidation is measured using a modification of the method of Rodbell (Rodbell, 1964) and a modification of the cell culture system described by Bottcher and Furst (Bottcher, 1996). Briefly, adipocytes are isolated, counted and sized as previously described. Adipocytes are plated as described except they are placed in a sterile 20 ml scintillation vial instead of a well. Two ml of treatment media containing [U-^14C]-substrate (0.3 uCi/ml; glucose, fatty acids, malate, fumarate, pyruvate) is added to the vials. The vials are filled with 95% O2-5% CO2 gas and capped with rubber stoppers fitted with a hanging center well. Each well contains a 2×8 cm strip of Whatman No. 1 paper. Vials are maintained at 37° C. for 48 hr. After 48 hr, a sample of media is removed from each vial using a 4 inch, 23 gauge needle. Using another syringe and 23 gauge needle, 200 ul of sodium benzethonium is placed onto the paper strip and hanging well to capture CO2. Concentrated sulfuric acid is added to the vial in order to lyse cells and liberate all CO2 from the collagen matrix. After 24 hours, the hanging well and paper are transferred to another vial containing scintillation fluid and counted. The data are expressed as % DPM recovered as CO2 of the total DPM remaining in the media at 48 hours and as micromoles of substrate oxidized over time.

isolated rat adipocytes [6] = experiment: Glucose utilization (uptake) by isolated cultured rat adipocytes; format: cell-based; conditions: for Glucose Uptake (μg) over 96 h: isolated rat adipocytes, 96 h culture
Experimental: as §1, §2, §3

isolated rat adipocytes [7] = experiment: Incorporation of glucose carbon into triglyceride in cultured adipocytes; format: cell-based
Experimental: Incorporation of Glucose Carbon into Triglyceride: To measure glucose incorporation into triglyceride, cultures are exposed to media containing 0.01 uCi/ml of ^14C-glucose. After 96 hr, media and extracellular lipid is removed from the well and methanol added. Then scrape the collagen-cell matrix from the well and transfer into a 50 ml glass tube. Rinse the well and scrape again in methanol to assure complete transfer of cells. Total triglycerides will be extracted using the Folch method (Folch, 1957). An aliquot of the lipid extract will be placed into vials containing scintillation fluid then radioactivity will be measured.
The first measurement is used to calculate the amount of glucose incorporated into triglycerides. Another aliquot of the lipid extract is placed into pre-weighed aluminum pans to determine the total amount of triglyceride per well. The remaining lipid is saponified and acidified to separate the glycerol and fatty acids. An aliquot of the lipid extract is placed into vials containing scintillation fluid and counted. This second count represents the ^14C-glucose incorporation into fatty acids. By subtraction, the amount that was incorporated into triglyceride though glycerol is also determined. Glucose incorporation into triglyceride and into the fatty acid portion of the triglyceride are calculated by multiplying disintegration per min by total ug of glucose/well over the total DPM/well.

cultured rat adipocytes = experiment: Adiponectin secretion by isolated cultured rat adipocytes over 96 h; format: cell-based; conditions: DTNB 100 μM, DCA 2 mM; 96 h culture, n=6
Experimental: Several studies have reported that thiazolidenediones (TZDs), agonists of PPARγ, increase adiponectin expression and circulating levels in animals (Maeda, 2001; Yamauchi, 2001a; Ye, 2003). TZD (10 μM Troglitazone) stimulated of adiponectin secretion from cultured rat adipocytes from 3 different depots (n=6). Mesenteric fat produced the largest amount of adiponectin over 96 hours in culture. (FIG. 5A). Adiponectin secretion from both the control- and TZD-treated adipocytes was well correlated with the glucose utilization (control, r=0.79; p<0.001); (TZD-treated, r=0.84, p=<0.0001, FIG. 5B) showing that, similar to leptin production, glucose metabolism also is involved in the regulation of adiponectin production by adipocytes.
Insulin increased adiponectin production from 3 different fat depots, however as in the experiments with troglitazone, the mesenteric depot produced the most adiponectin (FIG. 6B). Like leptin, both basal and insulin-stimulated adiponectin secretion was highly correlated to glucose utilization (r=0.91, p<0.0001) (FIG. 6C), and inversely related to the proportion of glucose metabolized to lactate (r=−0.81, p<0.0001) (FIG. 6D).
Also paralleling the regulation of leptin, adiponectin secretion by isolated cultured adipocytes was increased during 96 h culture by inhibitors of PDH-K. DTNB (100 μM) increased adiponectin secretion by 40% (p<0.03, n=6, FIG. 7A). DCA (2 mM) increased adiponectin secretion by 23% (p<0.025, n=6, FIG. 7B). The increase in adiponectin induced by DTNB was highly correlated with glucose utilization (r=0.95, p<0.004). Furthermore in adipocytes transfected with antisense directed at PDH-K, adiponectin secretion was stimulated by 24.3±8.4%, p<0.05, n=7, FIG. 7C).
as §1
Adipocyte Culture: Adipocytes are maintained in culture anchored to a basement membrane matrix (Matrigel, Becton Dickinson, Franklin Lakes, N.J.) or collagen from Cohesion Technologies, (Palo Alto, Calif.). […]

[8] = DCA 2.0 mM + insulin 0.48 nM vs control (insulin only)
[9] = DTNB 100 μM, NEM 0.1 μM, DCA 2 mM
[10] = NEM 0.1 μM + insulin 0.48 nM vs control (insulin only)

## O=CC[C@@H](O)[C@H](O)[C@H](O)CO [2-DG, 2-deoxy-D-glucose]
Isolated rat adipocytes [1]; 2-DG treatment
  effect on leptin secretion and ob gene expression (in words): suppressed
Leptin promoter; insulin 10 nM, 2-DG 10 mg/dl
  effect on activity of control plasmid (in words): unaffected
Leptin promoter; insulin 0.1 to 10 nM, 2-DG 10 mg/dl on basal and insulin-stimulated (10 nM) activity
  effect on leptin promoter activity (in words): markedly inhibited; also recorded: completely blocked

## O=C(O)CC(O)(CC(=O)O)C(=O)O [Citrate]
Isolated rat adipocytes [2]; low glucose and insulin concentration
  effect on leptin secretion (in words): stimulates
Isolated rat adipocytes [2]; presence of high insulin and glucose
  effect on leptin secretion (in words): does not affect

## [F-].[Na+] [sodium fluoride]
Isolated rat adipocytes [2]; glycolysis suppressed with sodium fluoride
  effect on leptin expression and secretion (in words): reduced

## C[N+](C)(C)C[C@H](O)CC(=O)[O-] [Carnitine, L-carnitine]
[3]; Carnitine 20 mM, n=7, percent of control
  increase of fatty acid oxidation: 50%
[3]; L-carnitine
  effect on fatty acid oxidation (in words): increased
Isolated rat adipocytes [4]; Carnitine 20 mM
  effect on proportion of glucose metabolized to lactate (in words): increased
Isolated rat adipocytes [5]; L-carnitine
  effect on glucose oxidation (in words): inhibited
Isolated rat adipocytes [1]; Carnitine 20 mM, n=12
  effect on leptin secretion (in words): modestly increased
Isolated rat adipocytes [6]; Carnitine 20 mM
  effect on glucose utilization (in words): inhibited
Isolated rat adipocytes [7]; Carnitine 20 mM
  effect on incorporation of labeled glucose into TG/lipid (in words): inhibited

## CCCCCCCC/C=C\CCCCCCCC(=O)O [oleate, oleic acid]
Isolated rat adipocytes [5]; Rattus norvegicus, Adipocyte, oleate 2 mM, n=7
  inhibition at 2000 µM: 30%
Isolated rat adipocytes [5]; oleic acid 2 mM, low glucose
  effect on glucose oxidation (in words): inhibits
Isolated rat adipocytes [1]; oleate/oleic acid 2 mM, low glucose
  effect on leptin secretion (in words): increased
Isolated rat adipocytes [1]; oleate/oleic acid 2 mM, low glucose, listed as oleic acid
  effect on leptin secretion (in words): increases

## O=C(O)C(Cl)Cl [DCA, Dichloroacetate]
Isolated rat adipocytes [4]; [8]
  Change in Parameter: Glucose to Lactate (%): −16.1 ± 1.3%
  Change in Parameter: Lactate Produced (μg) over 96 h: -181 ± 10 µg
Isolated rat adipocytes [4]; DCA 2.0 mM + insulin 0.48 nM
  Glucose to Lactate (%): 7.9 ± 0.9%
  Lactate Produced (μg) over 96 h: 81 ± 4 µg
Isolated rat adipocytes [1]; [8]
  % ΔLeptin Produced over 96 h: +17.6 ± 4.7%
  % Δ[Leptin] (ng/ml) at 96 h: +17.9 ± 7.9%
  Change in Parameter: Leptin (ng) Produced over 96 h: +12.9 ± 3.6 ng
  Change in Parameter: [Leptin] (ng/ml) at 96 h: +3.6 ± 1.0 ng/ml
Isolated rat adipocytes [1]; DCA 2.0 mM + insulin 0.48 nM
  Leptin (ng) Produced over 96 h: 88.3 ± 7.5 ng
  [Leptin] (ng/ml) at 96 h: 27.0 ± 2.6 ng/mL
Isolated rat adipocytes [1]; cultured adipocytes
  increase of leptin production/secretion: 20-25%
Isolated rat adipocytes [6]; [8]
  Change in Parameter: Glucose Uptake (μg) over 96 h: -46 ± 57 µg
Isolated rat adipocytes [6]; DCA 2.0 mM + insulin 0.48 nM
  Glucose Uptake (μg) over 96 h: 1082 ± 117 µg
Cultured rat adipocytes
  increase of adiponectin secretion: 23%

## CCN1C(=O)C=CC1=O [NEM, N-ethylmaleimide]
Isolated rat adipocytes [4]; [9]
  effect on glucose not converted to lactate or incorporated into TG (OTHER; glucose flux into oxidation), by subtraction (in words): increased
  effect on proportion of glucose anaerobically metabolized to lactate (in words): decreased
Isolated rat adipocytes [4]; DTNB 100 μM, NEM 0.1 μM, DCA 0.1 to 5.0 mM
  effect on lactate production (in words): without any increase
Isolated rat adipocytes [4]; [10]
  Change in Parameter: Glucose to Lactate (%): −6.9 ± 2.3%
  Change in Parameter: Lactate Produced (μg) over 96 h: -10 ± 13 µg
Isolated rat adipocytes [4]; NEM 0.1 μM + insulin 0.48 nM
  Glucose to Lactate (%): 13.6 ± 1.5%
  Lactate Produced (μg) over 96 h: 178 ± 11 µg
Isolated rat adipocytes [1]; [10]
  % ΔLeptin Produced over 96 h: +26.6 ± 6.2%
  % Δ[Leptin] (ng/ml) at 96 h: +25.3 ± 6.3%
  Change in Parameter: Leptin (ng) Produced over 96 h: +14.2 ± 4.2 ng
  Change in Parameter: [Leptin] (ng/ml) at 96 h: +4.0 ± 1.0 ng/ml
Isolated rat adipocytes [1]; NEM 0.1 μM + insulin 0.48 nM
  Leptin (ng) Produced over 96 h: 63.4 ± 8.2 ng
  [Leptin] (ng/ml) at 96 h: 18.4 ± 2.4 ng/mL
Isolated rat adipocytes [1]; PDH kinase inhibitors DTNB, NEM, DCA, cultured adipocytes
  effect on leptin production/secretion (in words): increase
Isolated rat adipocytes [1]; cultured adipocytes
  increase of leptin production/secretion: 25%
Isolated rat adipocytes [6]; [9]
  effect on total / insulin-mediated glucose utilization (in words): increased
Isolated rat adipocytes [6]; [10]
  Change in Parameter: Glucose Uptake (μg) over 96 h: +348 ± 114 μg
Isolated rat adipocytes [6]; NEM 0.1 μM + insulin 0.48 nM
  Glucose Uptake (μg) over 96 h: 1399 ± 132 µg
Isolated rat adipocytes [7]; [9]
  effect on proportion of glucose incorporated into TG (in words): without affecting

## O=C(O)CC(O)C(=O)O (stereo not shown) [Malate]
Isolated rat adipocytes [1]
  increase of leptin secretion/production: 20%
Isolated rat adipocytes [1]; listed as malate
  increase of leptin secretion/production: +20%
